# Laboratory results reported in patent publication US20250206722A1, “SMALL MOLECULE INHIBITORS OF TEA DOMAIN FAMILY MEMBERS” (The Scripps Research Institute, priority 2022, published 2025).
# Legend:
# [1] = test system: transcriptional activity of TEADs; test: TEAD reporter assay (MCF7 TEAD-LUC reporter cells); type: cell-based; details: Homo sapiens, 24 hours, BrightGlo luminescence
# How it was run: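 Luminescence (BrightGlo) was read after 24 h of compound treatment at 37 °C, 5 % CO2. Cells had been seeded at 5,000 per well in DMEM with 10 % FBS and insulin and rested 24 h first. Dosing used 20 points, 1:2 dilution from 20 μM final, triplicates.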
# [2] = Pharmacokinetic studies in mice; type: in vivo, mouse; details: for Vd / clearance / half-life: mouse plasma; for Vd / clearance: intravenous 2 mg/kg in 75% PEG 300+25% D5W; for half-life: intravenous 2 mg/kg, oral 10 mg/kg in 75% PEG 300+25% D5W; for bioavailability: plasma, mouse, oral 10 mg/kg vs intravenous 2 mg/kg in 75% PEG 300+25% D5W
# Experimental: Pharmacokinetic Studies in mice: The plasma pharmacokinetic profiles of representative compounds were evaluated in mouse via intravenous (2 mg/kg in 75% PEG 300+25% D5W solution) and oral (10 mg/kg in 75% PEG 300+25% D5W solution) dosing routes.
# NCI-H226 cells [3] = test: NCI-H226 proliferation assay (Wuxi AppTec); type: cell-based; details: Homo sapiens, 168 h, 7 days, CellTiter-Glo, top dose 10, 3-fold dilution, 9 doses
# How it was run: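 NCI-H226 cells were seeded at 500 cells/well overnight, then treated with compounds in a 9-point, 3-fold dilution from a top dose of 10 μM, with 0.2% DMSO. Plates were incubated 7 days at 37° C, 5% CO2. Viability was read by CellTiter-Glo luminescence, normalized to DMSO (max) and medium-only (min) controls.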
# IMR32 cells = test: IMR32 cytotoxicity assay; type: cell-based; details: Homo sapiens, IMR-32, 72 h, 3 days, Cell TiterGlo
# Experimental: IMR32 cells were obtained from American Type Culture Collection (ATCC, CCL-127) and cultured in DMEM (Corning, 10-013-CV) supplemented with 10% fetal bovine serum (Gibco, 10438-026) and 1% penicillin-streptomycin (Gibco, 15070063). Cells were trypsinized, resuspended in growth medium, and diluted to a concentrated of 20,000 cells/mL. 1,000 cells, 50 μL of cell suspension, per well were then plated in a white 384-well plate (Corning) and incubated at 37° C., 5% CO2. After 24 hours incubation, 100 nL of test compounds in DMSO, 20-point 1:2 dilution starting from 20 μM (final concentration) in triplicate, were transferred to each well using an Agilent Bravo instrument outfitted with a pintool head. Cells were incubated at 37° C., 5% CO2 for 3 days followed by the addition of 30 μL of Cell TiterGlo (Promega; diluted 1:6 in water) to each well and luminescence values recorded using an EnVision plate reader. […]
# NCI-H226 cells [4] = test: NCI-H226 proliferation assay (in house); type: cell-based; details: Homo sapiens, 120 h, 5 days, Cell TiterGlo, 20-point 1:2 dilution from 20 μM
# How it was run: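 Viability by CellTiter-Glo luminescence after 5-day compound exposure at 37 °C, 5% CO2. Compounds added 24 h post-seeding (500 cells/well, RPMI 1640 with 10% FBS) as 20-point, 2-fold series from 20 μM final, triplicate wells.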
Structure (SMILES),IC50 [1] [nM],Vd [2] [L/kg],clearance [2] [mL/min/kg],half-life [2] [min],bioavailability [2] [%],IC50 (NCI-H226 cells [3]) [µM],IC50 (NCI-H226 cells [4]) [µM],IC50 (IMR32 cells) [nM]
"C=CC(=O)N1CCN(c2nccnc2Nc2ccc(OC(F)(F)F)cc2)CC1 [Example 34, 1-(4-(3-((4-(trifluoromethoxy)phenyl)amino)pyrazin-2-yl)piperazin-1-yl)prop-2-en-1-one]",2,,,,,0.006,0.007,> 10000
"C=CC(=O)N1CCN(c2nccnc2Nc2ccc(C(F)(F)F)cn2)CC1 [Example 39, 1-(4-(3-((5-(trifluoromethyl)pyridin-2-yl)amino)pyrazin-2-yl)piperazin-1-yl)prop-2-en-1-one]",5,1.8,39.5,30,90,0.015,0.016,> 20000
"C=CC(=O)N1CCN(c2nccnc2Oc2ccc(C(F)(F)F)cn2)CC1 [Example 73, 1-(4-(3-((5-(trifluoromethyl)pyridin-2-yl)oxy)pyrazin-2-yl)piperazin-1-yl)prop-2-en-1-one]",3,,,,,0.032,0.025,> 20000
"C=CC(=O)N1CCC(c2nccnc2Oc2ccc(C(F)(F)F)nc2)CC1 [Example 79, 1-(4-(3-((6-(trifluoromethyl)pyridin-3-yl)oxy)pyrazin-2-yl)piperidin-1-yl)prop-2-en-1-one]",2,1.73,47.3,24,109,0.028,0.017,

# More lines, main results first:
IC50 [1] [nM],Vd [2] [L/kg],clearance [2] [mL/min/kg],half-life [2] [min],bioavailability [2] [%],IC50 (NCI-H226 cells [3]) [µM],IC50 (NCI-H226 cells [4]) [µM],Structure (SMILES),IC50 (IMR32 cells) [nM]
1.8,7,42.2,126,94.4,0.0143,0.0166,"C=CC(=O)N1CCN(c2nccnc2Nc2ccc(C(F)(F)F)cc2)CC1 [Compound 1, 1-(4-(3-((4-(trifluoromethyl)phenyl)amino)pyrazin-2-yl)piperazin-1-yl)prop-2-en-1-one]",> 10000
1.8,,,,,0.009,0.011,"C=CC(=O)N1CCN(c2nc(C)cnc2Nc2ccc(C(F)(F)F)cc2)CC1 [Example 112, 1-(4-(6-methyl-3-((4-(trifluoromethyl)phenyl)amino)pyrazin-2-yl)piperazin-1-yl)prop-2-en-1-one]",10000
